The test system of one assay is A. baumannii. In words: MIC by broth dilution, A. baumannii. The assay is classed as cell-based. The note with it: Acinetobacter baumannii; Mueller-Hinton broth, overnight 37° C.; Table 1; read-out: MIC (μg/mL) A. baumannii. The protocol:
(§1) The antibacterial efficacy of the ammonium compounds was assessed. Minimum inhibitory concentrations (MICs) were determined by broth dilution method. Dilutions of each compound, ranging from 1 μg/mL to 256 μg/mL (final concentrations) were prepared in Mueller-Hinton broth. Compound dilutions were added to wells of a 96-well plate, with the concentration of the compound increasing 2-fold by row. Each well contained 5×10^5 CFU/ml of target bacterium in a total volume of 100 μl. Plates were incubated overnight at 37° C. The following day, plates were evaluated for a visual change in growth to determine the MIC. The concentration value corresponding to the first row that no longer had visible bacterial growth, as evaluated by turbidity in the wells, was recorded as the MIC. MIC values were representative of at least biological duplicates, each made up of technical triplicates. The antibacterial efficacy of ammonium compounds in the presence of human plasma was assessed. Minimum inhibitory concentrations (MICs) were determined by broth dilution method. Dilutions of each compound, ranging from 1 μg/mL to 256 μg/mL (final concentrations) were prepared in Mueller-Hinton broth. For the plasma containing samples, compound dilutions were made in Mueller-Hinton broth and supplemented with 5% (final %) human plasma (esterases). Compound dilutions were added to wells of a 96-well plate, with the concentration of the compound increasing 2-fold by row. Each well contained 5×10^5 CFU/mL of target bacterium in a total volume of 100 μL. Plates were incubated overnight at 37° C. The following day, plates were evaluated for a visual change in growth to determine the MIC. The concentration value corresponding to the first row that no longer had visible bacterial growth, as evaluated by turbidity in the wells, was recorded as the MIC. MIC values were representative of at least biological duplicates, each made up of technical triplicates.
Background: Broth dilution looks for growth in wells or tubes with falling amounts of substance.

A further assay deals with S. aureus. In words: MIC by broth dilution, S. aureus. It counts as cell-based. The note with it: Staphylococcus aureus; Mueller-Hinton broth, overnight 37° C.; Table 1; read-out: MIC (μg/mL) S. aureus. The procedure: as §1

The structures appear in SMILES notation.

Consider `CCCCCCCCOc1ccccc1C(=O)Nc1ccc(C(=O)OCC[N+](CC)(CC)CC2CCCC2)cc1.[Br-]` [Compound 61, N-(Cyclopentylmethyl)-N,N-diethyl-2-((4-(2-(octyloxy)benzamido)benzoyl)oxy)-ethan-1-aminium bromide], for which the MIC in the assay on A. baumannii was 3 to 30 µg/mL; in the assay with S. aureus, less than 3 µg/mL.

For `CCCCCCCCOc1cc(OCCCCCCCC)cc(C(=O)Nc2ccc(C(=O)OCC[N+](C)(CC)CC)cc2)c1.[Br-]` [Compound 18, 2-((4-(3,5-Bis(octyloxy)benzamido)benzoyl)oxy)-N,N-diethyl-N-methylethan-1-aminium bromide], the MIC in the assay with A. baumannii and in the assay on S. aureus was more than 30 µg/mL throughout.

In the case of `CCCCCCCCOc1ccccc1C(=O)Nc1ccc(C(=O)OCC[N+](CC)(CC)Cc2cccc(F)c2)cc1.[Br-]` [Compound 42, N,N-Diethyl-N-(3-fluorobenzyl)-2-((4-(2-(octyloxy)benzamido)benzoyl)oxy)ethan-1-aminium bromide], the MIC in the assay with A. baumannii was 3 to 30 µg/mL; with S. aureus, less than 3 µg/mL.

On to `CCCCCCCCOc1ccccc1C(=O)Nc1ccc(C(=O)N2CC[N+](C)(CC)CC2)cc1.[Br-]` [Compound 54, 1-Ethyl-1-methyl-4-(4-(2-(octyloxy)benzamido)benzoyl)piperazin-1-ium bromide], for which the MIC with A. baumannii and in the assay with S. aureus was more than 30 µg/mL each time.

Regarding `CCCCCCCCOc1ccc(C(=O)Nc2ccc(C(=O)OCC[N+](C)(CC)CC)cc2)cc1.[Br-]` [Compound 31, N,N-Diethyl-N-methyl-2-((4-(4-(octyloxy)benzamido)benzoyl)oxy)ethan-1-aminium bromide], the MIC with A. baumannii and in the assay on S. aureus was more than 30 µg/mL each time.

As for `CCCCCCCCOc1ccccc1C(=O)Nc1ccc(C(=O)N(C)CC[N+](C)(CC)CC)cc1.[Br-]` [Compound 55, N,N-Diethyl-N-methyl-2-(N-methyl-4-(2-(octyloxy)benzamido)benzamido)ethan-1-aminium bromide], the MIC in the assay on A. baumannii and with S. aureus was more than 30 µg/mL throughout.

With `CCCCCCCCOc1ccccc1C(=O)Nc1ccc(C(=O)OCC[N+](CC)(CC)CCCCCCCC)cc1.[Br-]` [Compound 38, N,N-Diethyl-N-(2-((4-(2-(octyloxy)benzamido)benzoyl)oxy)ethyl)octan-1-aminium bromide], the values for the MIC in the assay on A. baumannii and with S. aureus were more than 30 µg/mL and less than 3 µg/mL, respectively.

With `CCCCCCCCOc1cccc(C(=O)Nc2ccc(C(=O)OCC[N+](C)(CC)CC)cc2)c1OCCCCCCCC.[Br-]` [Compound 14, 2-((4-(2,3-Bis(octyloxy)benzamido)benzoyl)oxy)-N,N-diethyl-N-methylethan-1-aminium bromide], the MIC in the assay with A. baumannii and with S. aureus was more than 30 µg/mL each time.

Consider `CCCCCCCCOc1ccccc1C(=O)Nc1ccc(C(=O)OC2CC[N+](C)(CC)CC2)cc1.[Br-]` (stereo not drawn) [Compound 53, 1-Ethyl-1-methyl-4-((4-(2-(octyloxy)benzamido)benzoyl)oxy)piperidin-1-ium bromide], for which the values for the MIC with A. baumannii and in the assay on S. aureus were more than 30 µg/mL and 3 to 30 µg/mL, respectively.

With `CCCCCCCOc1ccccc1C(=O)Nc1ccc(C(=O)OCC[N+](C)(CC)CC)cc1.[Br-]` [Compound 22, N,N-Diethyl-2-((4-(2-(heptyloxy)benzamido)benzoyl)oxy)-N-methylethan-1-aminium bromide], the MIC with A. baumannii is more than 30 µg/mL; in the assay on S. aureus, 3 to 30 µg/mL.

Regarding `CCCCCCCOc1ccccc1C(=O)Nc1ccc(C(=O)NC2CC[N+](CC)(CCC)CC2)cc1.[Br-]` (stereo not drawn) [Compound 85, 1-Ethyl-4-(4-(2-(heptyloxy)benzamido)benzamido)-1-propylpiperidin-1-ium bromide], the MIC in the assay with A. baumannii was more than 30 µg/mL; in the assay with S. aureus, 3 to 30 µg/mL.

For `CCCCCCCCOc1ccccc1C(=O)Nc1ccc(C(=O)OCC[N+](CC)(CC)Cc2cccc(OC)c2)cc1.[Br-]` [Compound 50, N,N-Diethyl-N-(3-methoxybenzyl)-2-((4-(2-(octyloxy)benzamido)benzoyl)oxy)-ethan-1-aminium bromide], the MIC is 3 to 30 µg/mL in the assay on A. baumannii and less than 3 µg/mL with S. aureus.

As for `CCCCCOc1ccccc1C(=O)Nc1ccc(C(=O)OCC[N+](C)(CC)CC)cc1.[Br-]` [Compound 20, N,N-Diethyl-N-methyl-2-((4-(2-(pentyloxy)benzamido)benzoyl)oxy)ethan-1-aminium bromide], the MIC in the assay with A. baumannii and with S. aureus was more than 30 µg/mL throughout.

Regarding `CCCCCCCOc1ccccc1C(=O)Nc1ccc(C(=O)OCC[N+](CC)(CC)CCC)cc1.[Br-]` [Compound 69, N,N-Diethyl-N-(2-((4-(2-(heptyloxy)benzamido)benzoyl)oxy)ethyl)propan-1-aminium bromide], the MIC is more than 30 µg/mL with A. baumannii and 3 to 30 µg/mL with S. aureus.

As for `CCCC(CCC)Oc1ccccc1C(=O)Nc1ccc(C(=O)OCC[N+](C)(CC)CC)cc1.[Br-]` [Compound 96, N,N-Diethyl-2-((4-(2-(heptan-4-yloxy)benzamido)benzoyl)oxy)-N-methylethan-1-aminium bromide], the MIC in the assay with A. baumannii is more than 30 µg/mL; in the assay on S. aureus, 3 to 30 µg/mL.

On to `CCCCCCCCCCCOc1ccccc1C(=O)Nc1ccc(C(=O)OCC[N+](C)(CC)CC)cc1.[Br-]` [Compound 25, N,N-Diethyl-N-methyl-2-((4-(2-(undecyloxy)benzamido)benzoyl)oxy)ethan-1-aminium bromide], for which the MIC in the assay with A. baumannii is more than 30 µg/mL; in the assay on S. aureus it was 3 to 30 µg/mL.

As to `CCCCCCCCOc1cccc(F)c1C(=O)Nc1ccc(C(=O)OCC[N+](C)(CC)CC)cc1.[Br-]` [Compound 88, N,N-Diethyl-2-((4-(2-fluoro-6-(octyloxy)benzamido)benzoyl)oxy)-N-methylethan-1-aminium bromide], the values for the MIC in the assay on A. baumannii and in the assay on S. aureus were more than 30 µg/mL and 3 to 30 µg/mL, respectively.

In the case of `CCCCCCCCOc1ccccc1C(=O)Nc1ccccc1C(=O)OCC[N+](C)(CC)CC.[Br-]` [Compound 13, N,N-Diethyl-N-methyl-2-((2-(2-(octyloxy)benzamido)benzoyl)oxy)ethan-1-aminium bromide], the MIC is more than 30 µg/mL with A. baumannii and 3 to 30 µg/mL in the assay on S. aureus.

With `CCCCCCCCOc1ccccc1C(=O)Nc1ccc(C(=O)OCC[N+](C)(CC)CC)c(F)c1.[Br-]` [Compound 90, N,N-Diethyl-2-((2-fluoro-4-(2-(octyloxy)benzamido)benzoyl)oxy)-N-methylethan-1-aminium bromide], the MIC with A. baumannii and with S. aureus was 3 to 30 µg/mL in each case.

`CCCCCCOc1ccccc1C(=O)Nc1ccc(C(=O)OCC[N+](CC)(CC)CCC)cc1.[Br-]` [Compound 66, N,N-Diethyl-N-(2-((4-(2-(hexyloxy)benzamido)benzoyl)oxy)ethyl)propan-1-aminium bromide]: the MIC in the assay on A. baumannii was more than 30 µg/mL; in the assay on S. aureus, 3 to 30 µg/mL.

On to `CCCCCCCCCCCCCCOc1ccccc1C(=O)Nc1ccc(C(=O)OCC[N+](C)(CC)CC)cc1.[Br-]` [Compound 28, N,N-Diethyl-N-methyl-2-((4-(2-(tetradecyloxy)benzamido)benzoyl)oxy)ethan-1-aminium bromide], for which the results for the MIC in the assay on A. baumannii and with S. aureus were more than 30 µg/mL and 3 to 30 µg/mL, respectively.

For `CC[N+](C)(CC)CCOC(=O)c1ccc(NC(=O)c2ccccc2OCCCCC(C)C)cc1.[Br-]` [Compound 97, N,N-Diethyl-N-methyl-2-((4-(2-((5-methylhexyl)oxy)benzamido)benzoyl)oxy)-ethan-1-aminium bromide], the MIC is more than 30 µg/mL in the assay on A. baumannii and 3 to 30 µg/mL in the assay with S. aureus.

On to `CCCCCCCCOc1ccccc1C(=O)Nc1ccc(C(=O)NC2CC[N+](CCC)(CCC)CC2)cc1.[Br-]` [Compound 75, 4-(4-(2-(Octyloxy)benzamido)benzamido)-1,1-dipropylpiperidin-1-ium bromide], for which the figures for the MIC in the assay with A. baumannii and in the assay on S. aureus were more than 30 µg/mL and 3 to 30 µg/mL, respectively.

Regarding `CCCCCCCCOc1ccccc1C(=O)Nc1ccc(C(=O)NC2CC[N+](CC)(CCC)CC2)cc1.[Br-]` (stereo not drawn) [Compound 84, 1-Ethyl-4-(4-(2-(octyloxy)benzamido)benzamido)-1-propylpiperidin-1-ium bromide], the MIC is more than 30 µg/mL in the assay with A. baumannii and 3 to 30 µg/mL in the assay on S. aureus.

For `CCCCCCCCCCOc1ccccc1C(=O)Nc1ccc(C(=O)OCC[N+](C)(CC)CC)cc1.[Br-]` [Compound 24, 2-((4-(2-(Decyloxy)benzamido)benzoyl)oxy)-N,N-diethyl-N-methylethan-1-aminium bromide], the MIC is more than 30 µg/mL in the assay with A. baumannii and 3 to 30 µg/mL in the assay on S. aureus.

In the case of `CCCCCCOc1cc(F)ccc1C(=O)Nc1ccc(S(=O)(=O)NCC[N+](CC)(CC)CCCCC)cc1.[Br-]` [Compound 94, N,N-Diethyl-N-(2-((4-(4-fluoro-2-(hexyloxy)benzamido)phenyl)sulfonamido)-ethyl)pentan-1-aminium bromide], the MIC in the assay on A. baumannii and with S. aureus was 3 to 30 µg/mL each time.

Regarding `CCCCCCCCOc1ccccc1C(=O)Nc1ccc(C(=O)OCC[N+]2(C)CCCC2)cc1.[Br-]` [Compound 52, 1-Methyl-1-(2-((4-(2-(octyloxy)benzamido)benzoyl)oxy)ethyl)pyrrolidin-1-ium bromide], the MIC in the assay on A. baumannii was more than 30 µg/mL; in the assay on S. aureus, 3 to 30 µg/mL.

The record behind these values is patent US11952330B2, “Antibiotic ammonium compounds and methods for the treatment of bacterial infections” (priority 2019, dated 2024).
